Test results as given in ChEMBL document CHEMBL4715784, “Screening and biological evaluation of a novel STAT3 signaling pathway inhibitor against cancer” (Bioorg Med Chem Lett, 2016).
The source made the active and inactive calls. The calls are words filed in the database; no cut-off is given here.

Columns and labels:
[1] = Binding affinity to STAT3 K591A mutant (unknown origin) expressed in Escherichia coli by CM5 sensor chip immobilization based SPR assay; set-up: species or system Homo sapiens
MDA-MB-468 [2] = assay: Antiproliferative activity against human MDA-MB-468 cells harboring active STAT3 assessed as reduction in cell growth incubated for 24 hrs by CCK8 assay; assay type: functional, cell-based; conditions: MDA-MB-468, 24 h
MDA-MB-231 = assay: Antiproliferative activity against human MDA-MB-231 cells harboring active STAT3 assessed as reduction in cell growth incubated for 24 hrs by CCK8 assay; assay type: functional, cell-based; conditions: MDA-MB-231, 24 h
DU-145 = assay: Antiproliferative activity against human DU-145 cells harboring active STAT3 assessed as reduction in cell growth incubated for 24 hrs by CCK8 assay; assay type: functional, cell-based; conditions: DU-145, 24 h
MCF7 = assay: Antiproliferative activity against human MCF7 cells assessed as reduction in cell growth incubated for 24 hrs by CCK8 assay; assay type: functional, cell-based; conditions: MCF7, 24 h
[3] = biological target: T1, Signal transducer and activator of transcription 3 (Homo sapiens, UniProt P40763); assay: Binding affinity to STAT3 (unknown origin) expressed in Escherichia coli by CM5 sensor chip immobilization based SPR assay
T1 sequence (P40763 whole entry): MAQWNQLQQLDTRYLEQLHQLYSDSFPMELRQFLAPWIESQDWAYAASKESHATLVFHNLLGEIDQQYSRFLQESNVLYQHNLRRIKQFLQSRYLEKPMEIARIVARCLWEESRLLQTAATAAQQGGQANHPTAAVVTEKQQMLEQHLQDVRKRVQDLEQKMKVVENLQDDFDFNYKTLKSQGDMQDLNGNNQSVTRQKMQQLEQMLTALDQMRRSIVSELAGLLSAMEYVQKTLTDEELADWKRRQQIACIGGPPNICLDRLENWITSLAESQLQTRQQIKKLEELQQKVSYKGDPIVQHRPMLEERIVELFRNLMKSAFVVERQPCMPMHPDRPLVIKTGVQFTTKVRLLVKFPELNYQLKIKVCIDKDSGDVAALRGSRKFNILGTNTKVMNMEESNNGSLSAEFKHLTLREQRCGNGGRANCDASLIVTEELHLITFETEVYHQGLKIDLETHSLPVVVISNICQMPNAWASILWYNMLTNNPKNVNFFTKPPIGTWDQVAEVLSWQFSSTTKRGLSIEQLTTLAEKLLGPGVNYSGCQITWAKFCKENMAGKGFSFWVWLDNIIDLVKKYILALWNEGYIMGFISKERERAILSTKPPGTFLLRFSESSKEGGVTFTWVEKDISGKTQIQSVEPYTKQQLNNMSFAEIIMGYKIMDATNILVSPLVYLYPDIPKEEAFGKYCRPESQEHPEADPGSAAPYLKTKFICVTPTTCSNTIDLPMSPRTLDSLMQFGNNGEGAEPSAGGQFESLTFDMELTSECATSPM

[4] = Binding affinity to STAT3 R595G mutant (unknown origin) expressed in Escherichia coli by CM5 sensor chip immobilization based SPR assay; set-up: species or system Homo sapiens
[5] = Binding affinity to STAT3 C712G mutant (unknown origin) expressed in Escherichia coli by CM5 sensor chip immobilization based SPR assay; set-up: species or system Homo sapiens
[6] = Binding affinity to STAT3 K591A/S611G mutant (unknown origin) expressed in Escherichia coli by CM5 sensor chip immobilization based SPR assay; set-up: species or system Homo sapiens
[7] = Binding affinity to STAT3 I643S/Q635G mutant (unknown origin) expressed in Escherichia coli by CM5 sensor chip immobilization based SPR assay; set-up: species or system Homo sapiens
[8] = biological target: T1, Signal transducer and activator of transcription 3; assay: Inhibition of STAT3-dependent transcriptional activity in human HeLa cells transfected with p-Luc-TKS3 assessed as reduction in luciferase expression incubated for 24 hrs by dual luciferase reporter gene assay; assay type: cell-based
[9] = biological target: T1, Signal transducer and activator of transcription 3; assay: Inhibition of STAT3 in human MDA-MB-468 cells assessed as reduction in STAT3 Y705 residue phosphorylation incubated for 24 hrs by Western blot analysis; assay type: cell-based; conditions: dose 1-30 µM
MDA-MB-468 [10] = assay: Effect on STAT3 expression in human MDA-MB-468 cells at 1 to 30 uM incubated for 24 hrs by Western blot analysis; assay type: functional, cell-based; conditions: dose 1-30 µM
[11] = biological target: T2, Signal transducer and activator of transcription 1-alpha/beta (Homo sapiens) (UniProt P42224); assay: Inhibition of STAT1 in human MDA-MB-468 cells assessed as reduction in STAT1 phosphorylation at 1 to 30 uM incubated for 24 hrs by Western blot analysis; assay type: cell-based; conditions: dose 1-30 µM
T2 sequence (whole entry): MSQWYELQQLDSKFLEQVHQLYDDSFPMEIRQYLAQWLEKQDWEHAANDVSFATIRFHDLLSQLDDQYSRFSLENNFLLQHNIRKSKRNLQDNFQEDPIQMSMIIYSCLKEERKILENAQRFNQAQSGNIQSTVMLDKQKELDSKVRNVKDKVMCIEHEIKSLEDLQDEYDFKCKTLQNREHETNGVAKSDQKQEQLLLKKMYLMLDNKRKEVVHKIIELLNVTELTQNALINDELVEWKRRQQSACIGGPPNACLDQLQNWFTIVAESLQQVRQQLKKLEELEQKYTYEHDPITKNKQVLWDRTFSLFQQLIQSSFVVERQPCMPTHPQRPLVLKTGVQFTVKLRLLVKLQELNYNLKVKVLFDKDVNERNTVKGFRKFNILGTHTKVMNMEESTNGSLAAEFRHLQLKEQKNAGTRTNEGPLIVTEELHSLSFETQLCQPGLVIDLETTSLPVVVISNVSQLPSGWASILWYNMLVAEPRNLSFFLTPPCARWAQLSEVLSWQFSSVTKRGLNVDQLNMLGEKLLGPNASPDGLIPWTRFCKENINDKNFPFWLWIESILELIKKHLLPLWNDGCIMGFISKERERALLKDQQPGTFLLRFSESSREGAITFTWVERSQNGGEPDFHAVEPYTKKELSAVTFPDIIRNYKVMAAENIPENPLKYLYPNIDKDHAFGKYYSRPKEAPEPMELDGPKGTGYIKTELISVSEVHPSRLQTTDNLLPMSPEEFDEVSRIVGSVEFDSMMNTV

[12] = biological target: T3, Signal transducer and activator of transcription 5A (Homo sapiens) (UniProt P42229); assay: Inhibition of STAT5 in human MDA-MB-468 cells assessed as reduction in STAT5 phosphorylation at 1 to 30 uM incubated for 24 hrs by Western blot analysis; assay type: cell-based; conditions: dose 1-30 µM
T3 sequence (whole entry): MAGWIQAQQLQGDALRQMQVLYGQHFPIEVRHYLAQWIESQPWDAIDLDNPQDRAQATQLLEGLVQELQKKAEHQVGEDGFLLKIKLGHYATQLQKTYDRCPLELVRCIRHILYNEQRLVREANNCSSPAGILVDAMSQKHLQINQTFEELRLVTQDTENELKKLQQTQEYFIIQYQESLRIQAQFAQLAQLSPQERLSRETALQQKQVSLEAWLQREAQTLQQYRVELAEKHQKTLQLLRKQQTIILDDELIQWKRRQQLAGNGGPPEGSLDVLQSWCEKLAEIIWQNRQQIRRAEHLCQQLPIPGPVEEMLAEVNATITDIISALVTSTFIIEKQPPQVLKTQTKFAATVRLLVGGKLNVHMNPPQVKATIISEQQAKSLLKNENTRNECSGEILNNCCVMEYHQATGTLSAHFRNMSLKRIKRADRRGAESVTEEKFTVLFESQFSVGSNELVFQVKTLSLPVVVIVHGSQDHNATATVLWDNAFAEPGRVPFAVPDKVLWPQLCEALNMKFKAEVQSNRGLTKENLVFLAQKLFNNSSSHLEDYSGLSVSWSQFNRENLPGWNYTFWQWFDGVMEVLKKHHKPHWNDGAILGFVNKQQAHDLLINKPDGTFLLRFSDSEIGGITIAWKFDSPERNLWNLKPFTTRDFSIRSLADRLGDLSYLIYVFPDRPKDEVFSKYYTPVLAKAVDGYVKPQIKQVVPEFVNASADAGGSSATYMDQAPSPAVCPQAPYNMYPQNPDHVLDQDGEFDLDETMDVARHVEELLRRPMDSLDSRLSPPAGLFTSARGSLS

[13] = biological target: T1, Signal transducer and activator of transcription 3; assay: Inhibition of STAT3 in human MDA-MB-468 cells assessed as reduction in Bcl-XL expression at 1 to 30 uM incubated for 24 hrs by Western blot analysis; assay type: cell-based; conditions: dose 1-30 µM
MDA-MB-468 [14] = assay: Antimigratory activity against human MDA-MB-468 cells assessed as reduction in cell migration incubated for 24 hrs by transwell study based analysis; assay type: functional; conditions: dose 10-30 µM
[15] = biological target: T1, Signal transducer and activator of transcription 3; assay: Displacement of fluorescein-labeled pYLPQTV-NH2 from STAT3 SH2 domain (unknown origin) by fluorescence polarization assay
Homo sapiens = species on record: Homo sapiens; assay: Selectivity ratio of Kd for STAT3 I643S/Q635G mutant (unknown origin) expressed in Escherichia coli to Kd for wild type STAT3 (unknown origin) expressed in Escherichia coli by CM5 sensor chip immobilization based SPR assay

## O=C1c2ccccc2C(=O)c2cc(S(=O)(=O)Nc3ccc(O)cc3)ccc21
[1]
  Kd: 3.84 µM
MDA-MB-468 [2]
  IC50: 5.1 µM
MDA-MB-231
  IC50: 13.8 µM
DU-145
  IC50: 63.8 µM
MCF7
  IC50: 134 µM
[3]
  Activity: Dose-dependent effect
  Kd: 4.59 µM
[4]
  Kd: 6.53 µM
[5]
  Kd: 18.5 µM
[6]
  Kd: 4.8 µM
[7]
  Kd: 22.7 µM
[8]
  IC50: 12.5 µM
  inhibition: Dose-dependent effect
[9]
  inhibition: Dose-dependent effect
MDA-MB-468 [10]
  Activity: inactive
[11]
  inhibition: Active
[12]
  inhibition: Active
[13]
  inhibition: Active
MDA-MB-468 [14]
  Activity: Dose-dependent effect
[15]
  inhibition: Active
Homo sapiens
  Selectivity ratio: 4
